Reference: PubChem BioAssay (NCI)
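96-well plates; 48 h exposure; 5 concentrations. Endpoints by linear interpolation between flanking doses. Not reached: highest tested concentration assigned. GI50 is the concentration that inhibits growth by half. Definition used: TGI = concentration required for complete inhibition of growth.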

Experiments:
Test in all cases: NCI anticancer screen, dose series, 48 h
HS 578T breast = tested on: HS 578T breast
SK-MEL-5 melanoma = tested on: SK-MEL-5 melanoma
HL-60(TB) leukemia = tested on: HL-60(TB) leukemia
OVCAR-3 ovarian = tested on: OVCAR-3 ovarian
UACC-62 melanoma = tested on: UACC-62 melanoma
MALME-3M melanoma = tested on: MALME-3M melanoma
OVCAR-4 ovarian = tested on: OVCAR-4 ovarian
M14 melanoma = tested on: M14 melanoma
SK-MEL-28 melanoma = tested on: SK-MEL-28 melanoma
HCC-2998 colon = tested on: HCC-2998 colon
HOP-62 NSCLC = tested on: HOP-62 NSCLC
SF-539 CNS = tested on: SF-539 CNS
T-47D breast = tested on: T-47D breast
HCT-15 colon = tested on: HCT-15 colon
OVCAR-8 ovarian = tested on: OVCAR-8 ovarian
COLO 205 colon = tested on: COLO 205 colon
K-562 leukemia = tested on: K-562 leukemia
TK-10 renal = tested on: TK-10 renal
HCT-116 colon = tested on: HCT-116 colon
MCF7 breast = tested on: MCF7 breast
SK-OV-3 ovarian = tested on: SK-OV-3 ovarian
EKVX NSCLC = tested on: EKVX NSCLC
SK-MEL-2 melanoma = tested on: SK-MEL-2 melanoma
NCI-H522 lung = tested on: NCI-H522 lung
HT29 colon = tested on: HT29 colon
CAKI-1 renal = tested on: CAKI-1 renal
U251 CNS = tested on: U251 CNS
786-0 renal = tested on: 786-0 renal
MDA-MB-231 breast = tested on: MDA-MB-231 breast
SN12C renal = tested on: SN12C renal
SNB-75 CNS = tested on: SNB-75 CNS
ACHN renal = tested on: ACHN renal
A549 NSCLC = tested on: A549 NSCLC
CCRF-CEM leukemia = tested on: CCRF-CEM leukemia
SNB-19 CNS = tested on: SNB-19 CNS
IGROV1 ovarian = tested on: IGROV1 ovarian
RXF 393 renal = tested on: RXF 393 renal
HOP-92 NSCLC = tested on: HOP-92 NSCLC
PC-3 prostate = tested on: PC-3 prostate
SF-268 CNS = tested on: SF-268 CNS
DU-145 prostate = tested on: DU-145 prostate
LOX IMVI melanoma = tested on: LOX IMVI melanoma
UO-31 renal = tested on: UO-31 renal
KM12 colon = tested on: KM12 colon
NCI-H226 lung = tested on: NCI-H226 lung
NCI/ADR-RES ovarian = tested on: NCI/ADR-RES ovarian
MDA-MB-468 breast = tested on: MDA-MB-468 breast
NCI-H460 lung = tested on: NCI-H460 lung
NCI-H23 lung = tested on: NCI-H23 lung
MDA-MB-435 = tested on: MDA-MB-435
UACC-257 melanoma = tested on: UACC-257 melanoma
RPMI-8226 leukemia = tested on: RPMI-8226 leukemia
BT-549 breast = tested on: BT-549 breast
MOLT-4 leukemia = tested on: MOLT-4 leukemia
SF-295 CNS = tested on: SF-295 CNS
SR leukemia = tested on: SR leukemia
SW-620 colon = tested on: SW-620 colon
A498 renal = tested on: A498 renal
OVCAR-5 ovarian = tested on: OVCAR-5 ovarian

O=C(c1ccc(O)cc1)C1[C@H](c2ccc(Cl)cc2)[C@@H](c2ccccc2)NC12C(=O)Nc1ccccc12 (stereo partly drawn)
GI50 (HS 578T breast): 6.96 µM | TGI (HS 578T breast): 18.8 µM | GI50 (SK-MEL-5 melanoma): 6.91 µM | TGI (SK-MEL-5 melanoma): 12.7 µM | GI50 (HL-60(TB) leukemia): 7.96 µM | TGI (HL-60(TB) leukemia): 25.6 µM | GI50 (OVCAR-3 ovarian): 6.95 µM | TGI (OVCAR-3 ovarian): 13.9 µM | GI50 (UACC-62 melanoma): 5 µM | TGI (UACC-62 melanoma): 10.2 µM | GI50 (MALME-3M melanoma): 6.68 µM | TGI (MALME-3M melanoma): 12.4 µM | GI50 (OVCAR-4 ovarian): 7.17 µM | TGI (OVCAR-4 ovarian): 16.3 µM | GI50 (M14 melanoma): 6.19 µM | TGI (M14 melanoma): 13.6 µM | GI50 (SK-MEL-28 melanoma): 7.02 µM | TGI (SK-MEL-28 melanoma): 12.9 µM | GI50 (HCC-2998 colon): 6.27 µM | TGI (HCC-2998 colon): 12 µM | GI50 (HOP-62 NSCLC): 6.99 µM | TGI (HOP-62 NSCLC): 14.7 µM | GI50 (SF-539 CNS): 7.02 µM | TGI (SF-539 CNS): 12.8 µM | GI50 (T-47D breast): 5.14 µM | TGI (T-47D breast): 12.9 µM | GI50 (HCT-15 colon): 5.6 µM | TGI (HCT-15 colon): 12.4 µM | GI50 (OVCAR-8 ovarian): 7.2 µM | TGI (OVCAR-8 ovarian): 14.1 µM | GI50 (COLO 205 colon): 7.17 µM | TGI (COLO 205 colon): 15.3 µM | GI50 (K-562 leukemia): 8.89 µM | TGI (K-562 leukemia): 42 µM | GI50 (TK-10 renal): 6.8 µM | TGI (TK-10 renal): 13.2 µM | GI50 (HCT-116 colon): 6.22 µM | TGI (HCT-116 colon): 12.8 µM | GI50 (MCF7 breast): 7.26 µM | TGI (MCF7 breast): 17.2 µM | GI50 (SK-OV-3 ovarian): 7.32 µM | TGI (SK-OV-3 ovarian): 14 µM | GI50 (EKVX NSCLC): 5.3 µM | TGI (EKVX NSCLC): 10.9 µM | GI50 (SK-MEL-2 melanoma): 6.03 µM | TGI (SK-MEL-2 melanoma): 12.1 µM | GI50 (NCI-H522 lung): 6.05 µM | TGI (NCI-H522 lung): 12.5 µM | GI50 (HT29 colon): 6.11 µM | TGI (HT29 colon): 13.3 µM | GI50 (CAKI-1 renal): 5.19 µM | TGI (CAKI-1 renal): 10.8 µM | GI50 (U251 CNS): 6.57 µM | TGI (U251 CNS): 12.7 µM | GI50 (786-0 renal): 6.25 µM | TGI (786-0 renal): 12.2 µM | GI50 (MDA-MB-231 breast): 5.38 µM | TGI (MDA-MB-231 breast): 10.8 µM | GI50 (SN12C renal): 6.26 µM | TGI (SN12C renal): 12 µM | GI50 (SNB-75 CNS): 5.25 µM | TGI (SNB-75 CNS): 11 µM | GI50 (ACHN renal): 6.08 µM | TGI (ACHN renal): 11.6 µM | GI50 (A549 NSCLC): 5.8 µM | TGI (A549 NSCLC): 12.2 µM | GI50 (CCRF-CEM leukemia): 5.9 µM | TGI (CCRF-CEM leukemia): 19.8 µM | GI50 (SNB-19 CNS): 6.71 µM | TGI (SNB-19 CNS): 12.4 µM | GI50 (IGROV1 ovarian): 5.18 µM | TGI (IGROV1 ovarian): 10.6 µM | GI50 (RXF 393 renal): 5.77 µM | TGI (RXF 393 renal): 11.5 µM | GI50 (HOP-92 NSCLC): 6.03 µM | TGI (HOP-92 NSCLC): 12.4 µM | GI50 (PC-3 prostate): 4.32 µM | TGI (PC-3 prostate): 11.7 µM | GI50 (SF-268 CNS): 7 µM | TGI (SF-268 CNS): 15.8 µM | GI50 (DU-145 prostate): 7.77 µM | TGI (DU-145 prostate): 15.4 µM | GI50 (LOX IMVI melanoma): 4.97 µM | TGI (LOX IMVI melanoma): 10.1 µM | GI50 (UO-31 renal): 4.73 µM | TGI (UO-31 renal): 9.79 µM | GI50 (KM12 colon): 7.65 µM | TGI (KM12 colon): 16.1 µM | GI50 (NCI-H226 lung): 5.37 µM | TGI (NCI-H226 lung): 11.8 µM | GI50 (NCI/ADR-RES ovarian): 5.72 µM | TGI (NCI/ADR-RES ovarian): 11.8 µM | GI50 (MDA-MB-468 breast): 4.86 µM | TGI (MDA-MB-468 breast): 10.3 µM | GI50 (NCI-H460 lung): 7.63 µM | TGI (NCI-H460 lung): 15.3 µM | GI50 (NCI-H23 lung): 6.29 µM | TGI (NCI-H23 lung): 12.3 µM | GI50 (MDA-MB-435): 7.01 µM | TGI (MDA-MB-435): 13.6 µM | GI50 (UACC-257 melanoma): 6.79 µM | TGI (UACC-257 melanoma): 12.9 µM | GI50 (RPMI-8226 leukemia): 8.61 µM | TGI (RPMI-8226 leukemia): 29.9 µM | GI50 (BT-549 breast): 8.32 µM | TGI (BT-549 breast): 14.6 µM | GI50 (MOLT-4 leukemia): 4.84 µM | TGI (MOLT-4 leukemia): 18.7 µM | GI50 (SF-295 CNS): 5.63 µM | TGI (SF-295 CNS): 11 µM | GI50 (SR leukemia): 5.14 µM | TGI (SR leukemia): 42 µM | GI50 (SW-620 colon): 8.11 µM | TGI (SW-620 colon): 16 µM | GI50 (A498 renal): 5.89 µM | TGI (A498 renal): 11.8 µM | GI50 (OVCAR-5 ovarian): 6.42 µM | TGI (OVCAR-5 ovarian): 12.1 µM
